Measured values published in patent US20060069132A1, “Azolecarboxamide herbicides” (priority 2004, published 2006).

Experiments:
[1] = system: Russian thistle; assay: Test E pre-/postemergence herbicide test; assay type: in vivo, Salsola kali; settings: Preemergence
In short: (§1)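 Herbicidal effect scored visually, 0–100 scale, versus controls. Treatments: preemergence on planted seed; postemergence on 2–18 cm seedlings. Greenhouse, 12 to 14 days.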

[2] = system: winter barley; assay: Test C postemergence herbicide test; assay type: in vivo, Hordeum vulgare
In short: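 After a postemergence application at 1 to 4 leaves (plants 2–18 cm high), or at 2 leaves for barnyardgrass in flooded paddy, plants stayed in the greenhouse for 12 to 14 days. Damage was then judged visually relative to control plants, with 100 indicating complete control.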

[3] = system: quackgrass; assay: Test E pre-/postemergence herbicide test; assay type: in vivo, Elytrigia repens; settings: Preemergence
In short: as §1

[4] = system: itchgrass; assay: Test E pre-/postemergence herbicide test; assay type: in vivo, Rottboellia cochinchinensis; settings: Preemergence
In short: as §1

[5] = system: Surinam grass; assay: Test E pre-/postemergence herbicide test; assay type: in vivo, Urochloa decumbens; settings: Preemergence
In short: as §1

[6] = system: canarygrass; assay: Test C postemergence herbicide test; assay type: in vivo, Phalaris minor
In short: (§2)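 Injury scored visually against controls on a 0 (no effect) to 100 (complete control) scale, 12 to 14 days after treatment in greenhouse. Flooded paddy plants treated at 2-leaf stage; postemergence plants at 1- to 4-leaf stage, 2 to 18 cm tall.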

[7] = system: Italian ryegrass; assay: Test C postemergence herbicide test; assay type: in vivo, Lolium multiflorum
In short: as §2

[8] = system: large crabgrass; assay: Test E pre-/postemergence herbicide test; assay type: in vivo, Digitaria sanguinalis; settings: Preemergence
In short: as §1

[9] = system: wild oat; assay: Test C postemergence herbicide test; assay type: in vivo, Avenafatua
In short: as §2

[10] = system: green foxtail; assay: Test C postemergence herbicide test; assay type: in vivo, Setaria viridis
In short: as §2

[11] = system: blackgrass; assay: Test C postemergence herbicide test; assay type: in vivo, Alopecurus myosuroides
In short: as §2

[12] = system: common ragweed; assay: Test E pre-/postemergence herbicide test; assay type: in vivo, Ambrosia elatior; settings: Preemergence
In short: as §1

[13] = system: bermudagrass; assay: Test E pre-/postemergence herbicide test; assay type: in vivo, Cynodon dactylon; settings: Preemergence
In short: as §1

[14] = system: dallisgrass; assay: Test E pre-/postemergence herbicide test; assay type: in vivo, Paspalum dilatatum; settings: Preemergence
In short: as §1

[15] = system: windgrass; assay: Test C postemergence herbicide test; assay type: in vivo, Apera spica-venti
In short: as §2

[16] = 500 g ai/ha, scale 0 (no effect) to 100 (complete control)
[17] = Postemergence, 500 g ai/ha, scale 0 to 100
[18] = Postemergence, 250 g ai/ha, scale 0 to 100, 0 no effect, 100 complete control
[19] = 250 g ai/ha, scale 0 (no effect) to 100 (complete control)
[20] = Postemergence, 500 g ai/ha, scale 0 to 100, 0 no effect, 100 complete control
[21] = postemergence, 125 g ai/ha, scale 0 to 100
[22] = postemergence, 62 g ai/ha, scale 0 to 100
[23] = 375 g ai/ha, scale 0 (no effect) to 100 (complete control)

SMILES: CCNC(=O)c1cccc(NC(=O)c2nn(C(C)(C)C)nc2C)c1 [Compound 392]
- Plant response rating, Thistle ([1]; 125 g ai/ha, scale 0 to 100): 10
- Plant response rating, Thistle [1, 16]: 100
- Barley, Winter plant response rating [2, 17]: 35
- Plant response rating, Barley, Winter ([2]; Postemergence, 125 g ai/ha, scale 0 to 100, 0 no effect, 100 complete control): 35
- Plant response rating, Barley, Winter [2, 18]: 35
- Plant response rating, Barley, Winter ([2]; postemergence, 62 g ai/ha, scale 0 to 100 (0 no effect, 100 complete control)): 35
- Plant response rating, Quackgrass ([3]; 62 g ai/ha, scale 0 to 100): 10
- Plant response rating, Quackgrass ([3]; 125 g ai/ha, scale 0 to 100): 60
- Plant response rating, Quackgrass [3, 19]: 70
- Plant response rating, Quackgrass [3, 16]: 95
- Plant response rating, Itchgrass ([4]; 62 g ai/ha, scale 0 to 100): 50
- Plant response rating, Itchgrass ([4]; 125 g ai/ha, scale 0 to 100): 85
- Plant response rating, Itchgrass [4, 19]: 85
- Plant response rating, Itchgrass [4, 16]: 90
- Plant response rating, Surinam Grass ([5]; 125 g ai/ha, scale 0 to 100): 60
- Plant response rating, Surinam Grass [5, 16]: 95
- Plant response rating, Canarygrass [6, 18]: 50
- Plant response rating, Canarygrass [6, 20]: 65
- Plant response rating, Canarygrass [6, 21]: 45
- Plant response rating, Canarygrass [6, 22]: 40
- Plant response rating, Ryegrass, Italian [7, 20]: 65
- Plant response rating, Ryegrass, Italian [7, 21]: 50
- Plant response rating, Ryegrass, Italian [7, 22]: 35
- Plant response rating, Crabgrass, Large ([8]; 62 g ai/ha, scale 0 to 100): 75
- Plant response rating, Crabgrass, Large ([8]; 125 g ai/ha, scale 0 to 100): 95
- Plant response rating, Crabgrass, Large [8, 19]: 95
- Plant response rating, Crabgrass, Large [8, 16]: 95
- Plant response rating, Oat, Wild [9, 20]: 60
- Plant response rating, Oat, Wild [9, 21]: 40
- Plant response rating, Oat, Wild [9, 22]: 30
- Plant response rating, Foxtail, Green [10, 18]: 65
- Plant response rating, Foxtail, Green [10, 20]: 70
- Plant response rating, Foxtail, Green [10, 21]: 60
- Plant response rating, Foxtail, Green [10, 22]: 60
- Blackgrass plant response rating [11, 17]: 65
- Plant response rating, Blackgrass [11, 18]: 45
- Plant response rating, Blackgrass [11, 21]: 45
- Plant response rating, Blackgrass [11, 22]: 35
- Plant response rating, Ragweed ([12]; 62 g ai/ha, scale 0 to 100): 30
- Plant response rating, Ragweed ([12]; 125 g ai/ha, scale 0 to 100): 30
- Plant response rating, Ragweed [12, 19]: 70
- Plant response rating, Ragweed [12, 16]: 100
- Plant response rating, Bermudagrass ([13]; 62 g ai/ha, scale 0 to 100): 60
- Plant response rating, Bermudagrass ([13]; 125 g ai/ha, scale 0 to 100): 60
- Plant response rating, Bermudagrass [13, 19]: 85
- Plant response rating, Bermudagrass [13, 16]: 90
- Plant response rating, Dallisgrass ([14]; 62 g ai/ha, scale 0 to 100): 10
- Plant response rating, Dallisgrass ([14]; 125 g ai/ha, scale 0 to 100): 60
- Plant response rating, Dallisgrass [14, 19]: 75
- Plant response rating, Dallisgrass [14, 16]: 100
- Plant response rating, Windgrass [15, 20]: 65
- Plant response rating, Windgrass [15, 21]: 55
- Plant response rating, Windgrass [15, 22]: 35

SMILES: CCc1nn(C(C)(C)C)cc1C(=O)Nc1cc(C(=O)N(C)C)ccn1 [Compound 293]
- Plant response rating, Thistle ([1]; 125 g ai/ha, scale 0 to 100): 60
- Plant response rating, Thistle [1, 23]: 95
- Plant response rating, Thistle [1, 16]: 100
- Plant response rating, Quackgrass ([3]; 125 g ai/ha, scale 0 to 100): 70
- Plant response rating, Quackgrass [3, 19]: 80
- Plant response rating, Quackgrass [3, 23]: 95
- Plant response rating, Quackgrass [3, 16]: 95
- Plant response rating, Itchgrass ([4]; 125 g ai/ha, scale 0 to 100): 10
- Plant response rating, Itchgrass [4, 19]: 90
- Plant response rating, Itchgrass [4, 23]: 100
- Plant response rating, Itchgrass [4, 16]: 100
- Plant response rating, Surinam Grass ([5]; 125 g ai/ha, scale 0 to 100): 80
- Plant response rating, Surinam Grass [5, 23]: 100
- Plant response rating, Surinam Grass [5, 16]: 100
- Plant response rating, Crabgrass, Large ([8]; 125 g ai/ha, scale 0 to 100): 95
- Plant response rating, Crabgrass, Large [8, 19]: 95
- Plant response rating, Crabgrass, Large [8, 23]: 100
- Plant response rating, Crabgrass, Large [8, 16]: 100
- Plant response rating, Ragweed ([12]; 125 g ai/ha, scale 0 to 100): 50
- Plant response rating, Ragweed [12, 19]: 70
- Plant response rating, Ragweed [12, 23]: 100
- Plant response rating, Ragweed [12, 16]: 100
- Plant response rating, Bermudagrass ([13]; 125 g ai/ha, scale 0 to 100): 90
- Plant response rating, Bermudagrass [13, 19]: 95
- Plant response rating, Bermudagrass [13, 23]: 95
- Plant response rating, Bermudagrass [13, 16]: 95
- Plant response rating, Dallisgrass ([14]; 125 g ai/ha, scale 0 to 100): 60
- Plant response rating, Dallisgrass [14, 19]: 95
- Plant response rating, Dallisgrass [14, 23]: 95
- Plant response rating, Dallisgrass [14, 16]: 100
